US20070004635A1, “Method of treating interferon non-responders using HCV protease inhibitor” (Schering Corporation, priority 2005, published 2007)

Legend:
[1] = tested on: HCV Genotype 1 (either Genotype 1a or Genotype 1b); assay: Rising multiple dose study in non-responder patients, HCV-RNA viral load by RT-PCR; format: in vivo
Protocol: A rising multiple dose study was conducted in four groups of non-responder patients in which 100, 200 and 400 mg BID and 400 mg TID dosages of the compound of Formula la were administered for 14 days. […] The methodology used was a randomized, placebo controlled, multi-center, third-party-blind, multiple-dose study of the compound of Formula Ia in non-responders conducted in accordance with Good Clinical Practices. For the purpose of this study, it should be noted that the non-responders also were patients in whom one or more symptoms were established in association with, or the possibility of one or more symptoms was suspected of in association with, HCV Genotype 1 (either Genotype 1a or Genotype 1b) specifically. In order to measure viral load, the Hepatitis C virus RNA (HCV-RNA) is measured by extracting total RNA from plasma or serum samples and using an in-house real-time reverse transcriptase polymerase chain reaction (RT-PCR) assay with a lower limit of detection of 29 International Units (IU)/mL. The amplification target is the 5′-Untranslated region (UTR) of the HCV genome. An internal RNA control is added to each sample to assess the efficiency of RNA extraction. Appropriate negative and positive controls are added in each assay run. The assay method has been validated against the WHO International Standard for HCV. The HCV-RNA amount in a sample is reported as copies of HCV-RNA per mL of sample and also as HCV IU per mL of sample. When <100 copies of HCV-RNA per mL are found, the HCV-RNA is considered to be undetectible.

[2] = tested on: HCV Genotype 1 (1a or 1b); assay: Parallel group, rising multiple-dose, 3 period crossover study in non-responders, HCV-RNA viral load; format: in vivo, patients
Protocol: In order to measure viral load, the Hepatitis C virus RNA (HCV-RNA) is measured by extracting total RNA from plasma or serum samples and using an in-house real-time reverse transcriptase polymerase chain reaction (RT-PCR) assay with a lower limit of detection of 29 International Units (IU)/mL. The amplification target is the 5′-Untranslated region (UTR) of the HCV genome. An internal RNA control is added to each sample to assess the efficiency of RNA extraction. Appropriate negative and positive controls are added in each assay run. The assay method has been validated against the WHO International Standard for HCV. The HCV-RNA amount in a sample is reported as copies of HCV-RNA per mL of sample and also as HCV IU per mL of sample. When <100 copies of HCV-RNA per mL are found, the HCV-RNA is considered to be undetectible.
A second study was commenced in patients having detectible levels ([…] copies per mL tissue or fluid) HCV Genotype 1 (1a or 1b) and whom were already established as non-responders from previous trials.
The methodology of the study was a parallel group, rising, multiple-dose, 3 period crossover (within each group) study in which subjects are treated with pegylated interferon (PEG-Intron, commercially available from Schering-Plough), 1.5 mcg/kg of the compound of Formula Ia or combination treatment of PEG-Intron 1.5 mcg/kg and the compound of Formula Ia. The doses of the compound of Formula Ia used for each group were 200 mg TID or 400 mg TID.
Twelve patients were treated in a random sequence with each 200 mg TID dose of the compound of Formula Ia alone for 7 days, PEG-Intron once weekly for two doses, and a combination treatment of 200 mg TID of the compound of Formula la plus PEG-Intron for 14 days. Preliminary results from the 200 mg TID dose group are illustrated in FIG. 2.

Structure (SMILES): CC(C)(C)NC(=O)N[C@H](C(=O)N1C[C@H]2[C@@H]([C@H]1C(=O)NC(CC1CCC1)C(=O)C(N)=O)C2(C)C)C(C)(C)C (mixture of isomers) [Formula Ia]
- average maximum reduction of viral load from baseline ([1]; 400 mg TID for 14 days, monotherapy, 10 non-responder patients): 2 logs
- effect of monotherapy on viral load ([1]; 100, 200 and 400 mg BID and 400 mg TID for 14 days): reduced viral load in all patients
- HCV-RNA viral load following discontinuation of treatment ([1]; after the 14-day treatment, all patients): returned to baseline levels in all patients
- mean maximum HCV-RNA reduction ([2]; 200 mg TID alone for 7 days, preliminary results): 0.85 logs
- average maximum reduction in HCV-RNA viral load ([2]; 200 mg TID in combination with PEG-Intron 1.5 mcg/kg weekly, two weeks of treatment): 2.4 logs
- course of viral load in the second week ([2]; 200 mg TID in combination with PEG-Intron, 14 days): viral load continued to decline in the second week
- HCV-RNA viral load level of one patient at the end of therapy (undetectible) ([2]; 200 mg TID in combination with PEG-Intron, end of 14 days, one patient (decrease by 4.5 logs)): < 100 copies per mL of tissue or fluid
